Results taken from PubChem BioAssay (NCI).
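In this assay, cells in 96-well plates receive the compound at five concentrations for 48 hours. Endpoints are linearly interpolated between the surrounding concentrations. TGI denotes the concentration required for complete inhibition of growth.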

Legend:
Test in all cases: growth of human tumour cells (NCI), 48 h
DMS 114 small cell lung = test system: DMS 114 small cell lung
SNB-78 CNS = test system: SNB-78 CNS
HOP-92 NSCLC = test system: HOP-92 NSCLC
DLD-1 colon = test system: DLD-1 colon
SF-539 CNS = test system: SF-539 CNS
CCRF-CEM leukemia = test system: CCRF-CEM leukemia
COLO 205 colon = test system: COLO 205 colon
HCC-2998 colon = test system: HCC-2998 colon
NCI-H522 lung = test system: NCI-H522 lung
SW-620 colon = test system: SW-620 colon
OVCAR-3 ovarian = test system: OVCAR-3 ovarian
HT29 colon = test system: HT29 colon
SK-OV-3 ovarian = test system: SK-OV-3 ovarian
HOP-62 NSCLC = test system: HOP-62 NSCLC
K-562 leukemia = test system: K-562 leukemia
HOP-18 NSCLC = test system: HOP-18 NSCLC
A498 renal = test system: A498 renal
XF 498 CNS = test system: XF 498 CNS
NCI-H23 lung = test system: NCI-H23 lung
U251 CNS = test system: U251 CNS
DMS 273 small cell lung = test system: DMS 273 small cell lung
A549 NSCLC = test system: A549 NSCLC
NCI-H460 lung = test system: NCI-H460 lung
EKVX NSCLC = test system: EKVX NSCLC
CAKI-1 renal = test system: CAKI-1 renal
MALME-3M melanoma = test system: MALME-3M melanoma
LXFL 529 NSCLC = test system: LXFL 529 NSCLC
HL-60(TB) leukemia = test system: HL-60(TB) leukemia
SK-MEL-2 melanoma = test system: SK-MEL-2 melanoma
M19-MEL melanoma = test system: M19-MEL melanoma
SK-MEL-28 melanoma = test system: SK-MEL-28 melanoma
SK-MEL-5 melanoma = test system: SK-MEL-5 melanoma
786-0 renal = test system: 786-0 renal
M14 melanoma = test system: M14 melanoma
RPMI-8226 leukemia = test system: RPMI-8226 leukemia
SF-268 CNS = test system: SF-268 CNS
UACC-257 melanoma = test system: UACC-257 melanoma
ACHN renal = test system: ACHN renal
TK-10 renal = test system: TK-10 renal
HCT-15 colon = test system: HCT-15 colon
MOLT-4 leukemia = test system: MOLT-4 leukemia
KM20L2 colon = test system: KM20L2 colon
OVCAR-4 ovarian = test system: OVCAR-4 ovarian
UACC-62 melanoma = test system: UACC-62 melanoma
UO-31 renal = test system: UO-31 renal
KM12 colon = test system: KM12 colon
SNB-19 CNS = test system: SNB-19 CNS
SF-295 CNS = test system: SF-295 CNS
IGROV1 ovarian = test system: IGROV1 ovarian
LOX IMVI melanoma = test system: LOX IMVI melanoma
NCI-H226 lung = test system: NCI-H226 lung
OVCAR-5 ovarian = test system: OVCAR-5 ovarian
SN12C renal = test system: SN12C renal
SNB-75 CNS = test system: SNB-75 CNS
RXF 393 renal = test system: RXF 393 renal
OVCAR-8 ovarian = test system: OVCAR-8 ovarian
HCT-116 colon = test system: HCT-116 colon

Measured: TGI

CC1=Nn2c(nnc2-c2ccc(Cl)cc2)NC(C)(C)C1
not listed: SN12C renal | SNB-75 CNS | RXF 393 renal | OVCAR-8 ovarian | HCT-116 colon
> 100 µM: all other assays above

Cn1nc(N)nc1N=S(C)(C)=N
not listed: DLD-1 colon | M19-MEL melanoma | LOX IMVI melanoma | HCT-116 colon
> 100 µM: all other assays above

CCOC(=O)C1(C(=O)OCC)OC(=O)NC2=C1CCCC2
not listed: CAKI-1 renal | M14 melanoma | HCT-15 colon | OVCAR-4 ovarian | UACC-62 melanoma | NCI-H226 lung | SN12C renal
> 100 µM: all other assays above
